From the supplement of paper PMC10307832

Legend:
Assay in all cases: relative viability (nuclei count vs DMSO), 5 days (fraction); higher = more cells survive
A549 = tested on: A549
Summary of the method: (§1)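 Medians of duplicate plates are given as relative viability. That measure is the nuclei count in treated wells divided by the count in vehicle wells. Counts were taken on 4× images of lung cancer cell lines in 1536-well plates, 5 days after pin-tool dosing the day after seeding with one drug alone or a fixed anchor-drug dose plus five library-drug doses (not always all listed) in √10 steps.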

NCI-H1993 = tested on: NCI-H1993
Summary of the method: as §1

NCI-H1703 = tested on: NCI-H1703
Summary of the method: as §1

UMC-11 = tested on: UMC-11
Summary of the method: as §1

NCI-H1299 = tested on: NCI-H1299
Summary of the method: as §1

NCI-H596 = tested on: NCI-H596
Summary of the method: as §1

EBC-1 = tested on: EBC-1
Summary of the method: as §1

NCI-H23 = tested on: NCI-H23
Summary of the method: as §1

IA-LM = tested on: IA-LM
Summary of the method: as §1

NCI-H1355 = tested on: NCI-H1355
Summary of the method: as §1

Calu-6 = tested on: Calu-6
Summary of the method: as §1

NCI-H322M = tested on: NCI-H322M
Summary of the method: as §1

LCLC-97TM1 = tested on: LCLC-97TM1
Summary of the method: as §1

For COc1cc2nccc(Oc3ccc(NC(=O)Nc4cc(C)on4)c(Cl)c3)c2cc1OC [Tivozanib] + C[C@@H](Oc1cc(-c2cnn(C3CCNCC3)c2)cnc1N)c1c(Cl)ccc(F)c1Cl [Crizotinib] (partner 1 µM), the relative viability (A549; first compound 0.005 µM) was 0.765, the relative viability (A549; first compound 0.01581 µM) was 0.793 and the relative viability (A549; first compound 0.05 µM) was 0.694. For the same compound, the relative viability (A549; first compound 0.1581 µM) was 0.828, the relative viability (A549; first compound 0.5 µM) was 0.652 and the relative viability (NCI-H1993; first compound 0.005 µM) was 0.764. For the same compound, the relative viability (NCI-H1993; first compound 0.01581 µM) was 0.852, the relative viability (NCI-H1993; first compound 0.05 µM) was 0.926 and the relative viability (NCI-H1993; first compound 0.1581 µM) was 0.707. For the same compound, the relative viability (NCI-H1993; first compound 0.5 µM) was 0.852, the relative viability (NCI-H1703; first compound 0.005 µM) was 0.239 and the relative viability (NCI-H1703; first compound 0.01581 µM) was 0.194. For the same compound, the relative viability (NCI-H1703; first compound 0.05 µM) was 0.163, the relative viability (NCI-H1703; first compound 0.1581 µM) was 0.157 and the relative viability (NCI-H1703; first compound 0.5 µM) was 0.155. The relative viability (UMC-11; first compound 0.005 µM) was 0.656, the relative viability (UMC-11; first compound 0.01581 µM) was 0.603 and the relative viability (UMC-11; first compound 0.05 µM) was 0.649. It also gave a relative viability (UMC-11; first compound 0.5 µM) of 0.536, a relative viability (NCI-H1299; first compound 0.005 µM) of 0.922 and a relative viability (NCI-H1299; first compound 0.01581 µM) of 0.971. It also gave a relative viability (NCI-H1299; first compound 0.05 µM) of 0.968, a relative viability (NCI-H1299; first compound 0.1581 µM) of 0.991 and a relative viability (NCI-H1299; first compound 0.5 µM) of 0.906. For the same compound, the relative viability (NCI-H596; first compound 0.005 µM) was 0.947, the relative viability (NCI-H596; first compound 0.01581 µM) was 0.903 and the relative viability (NCI-H596; first compound 0.05 µM) was 0.961. For the same compound, the relative viability (NCI-H596; first compound 0.1581 µM) was 0.861, the relative viability (NCI-H596; first compound 0.5 µM) was 0.966 and the relative viability (EBC-1; first compound 0.005 µM) was 0.182. For the same compound, the relative viability (EBC-1; first compound 0.01581 µM) was 0.186, the relative viability (EBC-1; first compound 0.05 µM) was 0.211 and the relative viability (EBC-1; first compound 0.1581 µM) was 0.207. For the same compound, the relative viability (EBC-1; first compound 0.5 µM) was 0.192, the relative viability (NCI-H23; first compound 0.005 µM) was 0.544 and the relative viability (NCI-H23; first compound 0.01581 µM) was 0.541. It also gave a relative viability (NCI-H23; first compound 0.05 µM) of 0.474, a relative viability (NCI-H23; first compound 0.1581 µM) of 0.461 and a relative viability (NCI-H23; first compound 0.5 µM) of 0.459. The relative viability (IA-LM; first compound 0.01581 µM) was 0.716, the relative viability (IA-LM; first compound 0.05 µM) was 1.04 and the relative viability (IA-LM; first compound 0.1581 µM) was 0.507. It also gave a relative viability (IA-LM; first compound 0.5 µM) of 0.494, a relative viability (NCI-H1355; first compound 0.005 µM) of 1.03 and a relative viability (NCI-H1355; first compound 0.01581 µM) of 1.03. It also gave a relative viability (NCI-H1355; first compound 0.05 µM) of 1.08, a relative viability (NCI-H1355; first compound 0.5 µM) of 1.07 and a relative viability (Calu-6; first compound 0.005 µM) of 0.778. The relative viability (Calu-6; first compound 0.01581 µM) was 0.772, the relative viability (Calu-6; first compound 0.05 µM) was 0.706 and the relative viability (Calu-6; first compound 0.1581 µM) was 0.839. For the same compound, the relative viability (Calu-6; first compound 0.5 µM) was 0.711, the relative viability (NCI-H322M; first compound 0.005 µM) was 0.9 and the relative viability (NCI-H322M; first compound 0.01581 µM) was 0.907. For the same compound, the relative viability (NCI-H322M; first compound 0.05 µM) was 1.03, the relative viability (NCI-H322M; first compound 0.1581 µM) was 0.845 and the relative viability (NCI-H322M; first compound 0.5 µM) was 0.8. The relative viability (LCLC-97TM1; first compound 0.005 µM) was 0.224, the relative viability (LCLC-97TM1; first compound 0.01581 µM) was 0.302 and the relative viability (LCLC-97TM1; first compound 0.1581 µM) was 0.365. The relative viability (LCLC-97TM1; first compound 0.5 µM) was 0.46.
